Measured values: ChEMBL document CHEMBL4138123, “Design, synthesis and biological evaluation of novel pyrazolochalcones as potential modulators of PI3K/Akt/mTOR pathway and inducers of apoptosis in breast cancer cells” (Eur J Med Chem, 2017)

Key:
Type in all cases: functional
MOLT-4 [1] = assay: Cytotoxicity against human MOLT4 cells assessed as growth inhibition after 48 hrs by sulforhodamine B assay; conditions: MOLT-4, 48 h
HOP-62 = assay: Cytotoxicity against human HOP62 cells assessed as growth inhibition after 48 hrs by sulforhodamine B assay; conditions: HOP-62, 48 h
SF-268 [2] = assay: Cytotoxicity against human SF268 cells assessed as growth inhibition after 48 hrs by sulforhodamine B assay; conditions: SF-268, 48 h
LOX IMVI = assay: Cytotoxicity against human LOXIMVI cells assessed as growth inhibition after 48 hrs by sulforhodamine B assay
MDA-MB-435 [3] = assay: Cytotoxicity against human MDA-MB-435 cells assessed as growth inhibition after 48 hrs by sulforhodamine B assay; conditions: MDA-MB-435, 48 h
SK-MEL-28 [4] = assay: Cytotoxicity against human SK-MEL-28 cells assessed as growth inhibition after 48 hrs by sulforhodamine B assay; conditions: SK-MEL-28, 48 h
786-0 [5] = assay: Cytotoxicity against human 786-0 cells assessed as growth inhibition after 48 hrs by sulforhodamine B assay; conditions: 786-0, 48 h
A498 [6] = assay: Cytotoxicity against human A498 cells assessed as growth inhibition after 48 hrs by sulforhodamine B assay; conditions: A498, 48 h
T47D [7] = assay: Cytotoxicity against human T47D cells assessed as growth inhibition after 48 hrs by sulforhodamine B assay
A498 [8] = assay: Cytotoxicity against human A498 cells assessed as cell growth at 0.01 uM after 48 hrs by sulforhodamine B assay relative to control; conditions: A498, 48 h, read-out: Activity
OVCAR-4 = assay: Cytotoxicity against human OVCAR4 cells assessed as cell growth at 0.01 uM after 48 hrs by sulforhodamine B assay relative to control; conditions: OVCAR-4, 48 h, read-out: Activity
M14 = assay: Cytotoxicity against human M14 cells assessed as cell growth at 0.01 uM after 48 hrs by sulforhodamine B assay relative to control; conditions: M14, 48 h, read-out: Activity
NCI-H322M = assay: Cytotoxicity against human NCI-H322M cells assessed as cell growth at 0.01 uM after 48 hrs by sulforhodamine B assay relative to control; conditions: read-out: Activity
MOLT-4 [9] = assay: Cytotoxicity against human MOLT4 cells assessed as cell growth at 0.01 uM after 48 hrs by sulforhodamine B assay relative to control; conditions: MOLT-4, 48 h, read-out: Activity
MOLT-4 [10] = assay: Cytotoxicity against human MOLT4 cells assessed as cell growth at 0.1 uM after 48 hrs by sulforhodamine B assay relative to control; conditions: MOLT-4, 48 h, read-out: Activity
UACC-257 = assay: Cytotoxicity against human UACC257 cells assessed as cell growth at 0.1 uM after 48 hrs by sulforhodamine B assay relative to control; conditions: UACC-257, 48 h, read-out: Activity
OVCAR-5 [11] = assay: Cytotoxicity against human OVCAR5 cells assessed as cell growth at 0.1 uM after 48 hrs by sulforhodamine B assay relative to control; conditions: OVCAR-5, 48 h, read-out: Activity
786-0 [12] = assay: Cytotoxicity against human 786-0 cells assessed as cell growth at 0.1 uM after 48 hrs by sulforhodamine B assay relative to control; conditions: 786-0, 48 h, read-out: Activity
RXF 393 = assay: Cytotoxicity against human RXF393 cells assessed as cell growth at 0.1 uM after 48 hrs by sulforhodamine B assay relative to control; conditions: RXF 393, 48 h, read-out: Activity
BT-549 = assay: Cytotoxicity against human BT549 cells assessed as cell growth at 0.1 uM after 48 hrs by sulforhodamine B assay relative to control; conditions: BT-549, 48 h, read-out: Activity
T47D [13] = assay: Cytotoxicity against human T47D cells assessed as cell growth at 0.1 uM after 48 hrs by sulforhodamine B assay relative to control; conditions: read-out: Activity
MDA-MB-468 = assay: Cytotoxicity against human MDA-MB-468 cells assessed as cell growth at 0.1 uM after 48 hrs by sulforhodamine B assay relative to control; conditions: MDA-MB-468, 48 h, read-out: Activity
SF-268 [14] = assay: Cytotoxicity against human SF268 cells assessed as cell growth at 1 uM after 48 hrs by sulforhodamine B assay relative to control; conditions: SF-268, 48 h, read-out: Activity
Malme-3M = assay: Cytotoxicity against human MALME-3M cells assessed as cell growth at 1 uM after 48 hrs by sulforhodamine B assay relative to control; conditions: read-out: Activity
MDA-MB-435 [15] = assay: Cytotoxicity against human MDA-MB-435 cells assessed as cell growth at 1 uM after 48 hrs by sulforhodamine B assay relative to control; conditions: MDA-MB-435, 48 h, read-out: Activity
OVCAR-5 [16] = assay: Cytotoxicity against human OVCAR5 cells assessed as cell growth at 1 uM after 48 hrs by sulforhodamine B assay relative to control; conditions: OVCAR-5, 48 h, read-out: Activity
OVCAR-8 = assay: Cytotoxicity against human OVCAR8 cells assessed as cell growth at 1 uM after 48 hrs by sulforhodamine B assay relative to control; conditions: OVCAR-8, 48 h, read-out: Activity
K562 = assay: Cytotoxicity against human K562 cells assessed as cell growth at 10 uM after 48 hrs by sulforhodamine B assay relative to control; conditions: K562, 48 h, read-out: Activity
HCC 2998 = assay: Cytotoxicity against human HCC2998 cells assessed as cell growth at 10 uM after 48 hrs by sulforhodamine B assay relative to control; conditions: HCC 2998, 48 h, read-out: Activity
SF-268 [17] = assay: Cytotoxicity against human SF268 cells assessed as cell growth at 10 uM after 48 hrs by sulforhodamine B assay relative to control; conditions: SF-268, 48 h, read-out: Activity
PC-3 = assay: Cytotoxicity against human PC3 cells assessed as cell growth at 10 uM after 48 hrs by sulforhodamine B assay relative to control; conditions: PC-3, 48 h, read-out: Activity
KM12 = assay: Cytotoxicity against human KM12 cells assessed as cell growth at 100 uM after 48 hrs by sulforhodamine B assay relative to control; conditions: KM12, 48 h, read-out: Activity
SNB-19 = assay: Cytotoxicity against human SNB19 cells assessed as cell growth at 100 uM after 48 hrs by sulforhodamine B assay relative to control; conditions: SNB-19, 48 h, read-out: Activity
SK-MEL-28 [18] = assay: Cytotoxicity against human SK-MEL-28 cells assessed as cell growth at 100 uM after 48 hrs by sulforhodamine B assay relative to control; conditions: SK-MEL-28, 48 h, read-out: Activity
[19] = read-out: LC50 (the source's name)

`COc1cc(-c2cc(/C=C/C(=O)c3ccc(F)c(F)c3)[nH]n2)cc(OC)c1OC` was tested, and the TGI (MOLT-4 [1]) was 9.09 µM, the CC50 (MOLT-4 [1]; [19]) was > 100 µM and the LC50 (HOP-62) was > 100 µM. For the same compound, the TGI (HOP-62) was > 100 µM, the TGI (SF-268 [2]) was > 100 µM and the CC50 (SF-268 [2]; [19]) was > 100 µM. The LC50 (LOX IMVI) was 41.5 µM, the TGI (LOX IMVI) was 12.2 µM and the LC50 (MDA-MB-435 [3]) was > 100 µM. For the same compound, the TGI (MDA-MB-435 [3]) was 13.3 µM, the LC50 (SK-MEL-28 [4]) was > 100 µM and the TGI (SK-MEL-28 [4]) was 28.2 µM. The LC50 (786-0 [5]) was > 100 µM, the TGI (786-0 [5]) was 15.7 µM and the LC50 (A498 [6]) was > 100 µM. For the same compound, the TGI (A498 [6]) was 7.13 µM, the LC50 (T47D [7]) was > 100 µM and the TGI (T47D [7]) was 27 µM. The growth at 0.01 µM (A498 [8]) was 100%, the growth at 0.01 µM (OVCAR-4) was 90% and the growth at 0.01 µM (M14) was 94%. It also gave a growth at 0.01 µM (NCI-H322M) of 94%, a growth at 0.01 µM (MOLT-4 [9]) of 108% and a growth at 0.1 µM (MOLT-4 [10]) of 106%. For the same compound, the growth at 0.1 µM (UACC-257) was 92%, the growth at 0.1 µM (OVCAR-5 [11]) was 93% and the growth at 0.1 µM (786-0 [12]) was 95%. The growth at 0.1 µM (RXF 393) was 96%, the growth at 0.1 µM (BT-549) was 105% and the growth at 0.1 µM (T47D [13]) was 93%. For the same compound, the growth at 0.1 µM (MDA-MB-468) was 94%, the growth at 1 µM (SF-268 [14]) was 83% and the growth at 1 µM (Malme-3M) was 97%. For the same compound, the growth at 1 µM (MDA-MB-435 [15]) was 88%, the growth at 1 µM (OVCAR-5 [16]) was 92% and the growth at 1 µM (OVCAR-8) was 89%. For the same compound, the growth at 10 µM (K562) was 2%, the growth at 10 µM (HCC 2998) was 13% and the growth at 10 µM (SF-268 [17]) was 17%. The growth at 10 µM (PC-3) was -23%, the growth at 100 µM (KM12) was -48% and the growth at 100 µM (SNB-19) was 22%. It also gave a growth at 100 µM (SK-MEL-28 [18]) of -39%.
